By IC50 is commonly meant the concentration at which inhibition is half-maximal. A lower IC50 goes with inhibition by little substance.

Where a name gives a salt, the structure may show the parent alone.

In one experiment the target is Cbl-b (Homo sapiens (Human), UniProt Q13191). Briefly: Cbl-b LCK Ub TR-FRET assay (Cbl-b Lck HTRF). It counts as biochemical. The gist of the method:
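TR-FRET (340 nm excitation, 615/665 nm emission) read after adding HA-ubiquitin–UBE2D2 thioester, anti-HA-D2 and streptavidin-Eu. Beforehand, compounds incubated 60 min with biotinylated Cbl-b, then 90 min with His-LCK and ATP (1 mM in 2× mix); IC50 from 10 concentrations, DMSO high and no-LCK low controls.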

The next experiment addresses c-Cbl (Homo sapiens (Human), UniProt P22681). Briefly: C-Cbl LCK Ub TR-FRET assay (c-cbl Lck HTRF). The format is biochemical. The following applies: for (fold-selectivity): C-cbl Lck HTRF IC50 relative to Cbl-b Lck HTRF IC50. In short, it runs like this:
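After the ubiquitination reaction, detection mixture was added and plates incubated 20 min at room temperature before reading. IC50 values were calculated with wells lacking LCK as the low control and DMSO as the high control.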
(In general: Time-resolved FRET reads energy transfer from a long-lived donor to a nearby acceptor.)

Sequence of c-Cbl (P22681 47-435): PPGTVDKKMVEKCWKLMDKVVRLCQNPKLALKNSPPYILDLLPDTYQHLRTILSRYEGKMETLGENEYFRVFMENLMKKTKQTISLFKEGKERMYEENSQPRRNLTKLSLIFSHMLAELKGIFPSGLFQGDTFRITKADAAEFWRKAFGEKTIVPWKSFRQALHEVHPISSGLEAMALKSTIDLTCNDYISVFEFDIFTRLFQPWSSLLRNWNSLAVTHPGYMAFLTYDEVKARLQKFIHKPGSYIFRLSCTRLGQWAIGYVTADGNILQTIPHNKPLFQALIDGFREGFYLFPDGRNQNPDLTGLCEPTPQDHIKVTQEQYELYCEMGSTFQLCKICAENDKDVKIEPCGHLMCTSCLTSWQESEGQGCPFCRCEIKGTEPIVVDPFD
Sequence of Cbl-b (Q13191 40-426): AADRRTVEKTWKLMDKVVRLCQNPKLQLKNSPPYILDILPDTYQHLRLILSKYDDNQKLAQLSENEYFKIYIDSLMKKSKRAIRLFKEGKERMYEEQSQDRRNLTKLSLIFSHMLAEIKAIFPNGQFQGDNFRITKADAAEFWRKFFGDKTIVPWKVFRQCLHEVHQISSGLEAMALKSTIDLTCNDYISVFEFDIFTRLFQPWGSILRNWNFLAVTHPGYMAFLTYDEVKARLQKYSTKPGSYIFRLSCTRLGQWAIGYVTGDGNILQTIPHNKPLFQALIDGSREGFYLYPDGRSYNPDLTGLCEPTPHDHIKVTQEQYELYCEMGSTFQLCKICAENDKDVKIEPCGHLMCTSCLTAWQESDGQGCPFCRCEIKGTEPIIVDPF

With `COCC1(NCc2cc3c(c(C(F)(F)F)c2)CN(c2cccc(C4(Cc5nncn5C)CC(F)(F)C4)c2)C3=O)CC1` [Compound 367, 2-(3-(3,3-difluoro-1-((4-methyl-4H-1,2,4-triazol-3-yl)methyl)cyclobutyl)phenyl)-6-(((1-(methoxymethyl)cyclopropyl)amino)methyl)-4-(trifluoromethyl)isoindolin-1-one], the results for the concentration for half-maximal inhibition (IC50) against Cbl-b and on c-Cbl were 30 nM and 29 nM, respectively. Besides, on c-Cbl, the “(fold-selectivity)” value is given as “(0.96x)”.
Consider `Cn1cnnc1CC1(c2cccc(N3Cc4c(cc(CNCC5COC5)cc4C(F)(F)F)C3=O)c2)CC(F)(F)C1` [Compound 368, 2-(3-(3,3-difluoro-1-((4-methyl-4H-1,2,4-triazol-3-yl)methyl)cyclobutyl)phenyl)-6-(((oxetan-3-ylmethyl)amino)methyl)-4-(trifluoromethyl)isoindolin-1-one], for which the half-inhibitory concentration (IC50) against Cbl-b amounted to 20 nM; against c-Cbl, 14 nM. Moreover, the “(fold-selectivity)” value at c-Cbl is recorded as “(0.72x)”.
`CCC1(NCc2cc3c(c(C(F)(F)F)c2)CN(c2cccc(C4(Cc5nncn5C)CC(F)(F)C4)c2)C3=O)CCC1` [Compound 369, 2-(3-(3,3-difluoro-1-((4-methyl-4H-1,2,4-triazol-3-yl)methyl)cyclobutyl)phenyl)-6-(((1-ethylcyclobutyl)amino)methyl)-4-(trifluoromethyl)isoindolin-1-one formate]: the results for the concentration for half-maximal inhibition (IC50) against Cbl-b and on c-Cbl were 17 nM and 15 nM, respectively.
Turning to `CC[C@@H](C)NCc1cc2c(c(C(F)(F)F)c1)CN(c1cccc(C3(Cc4nncn4C)CC(F)(F)C3)c1)C2=O` [Compound 370, (R)-6-((sec-butylamino)methyl)-2-(3-(3,3-difluoro-1-((4-methyl-4H-1,2,4-triazol-3-yl)methyl)cyclobutyl)phenyl)-4-(trifluoromethyl)isoindolin-1-one], the half-inhibitory concentration (IC50) against Cbl-b is 62 nM; at c-Cbl it was 63 nM. Further, the “(fold-selectivity)” value on c-Cbl is “(1.0x)”.
For the compound `CC[C@H](C)NCc1cc2c(c(C(F)(F)F)c1)CN(c1cccc(C3(Cc4nncn4C)CC(F)(F)C3)c1)C2=O` [Compound 371, (S)-6-((sec-butylamino)methyl)-2-(3-(3,3-difluoro-1-((4-methyl-4H-1,2,4-triazol-3-yl)methyl)cyclobutyl)phenyl)-4-(trifluoromethyl)isoindolin-1-one], the IC50 against Cbl-b is 15 nM; against c-Cbl, 14 nM. Also, the “(fold-selectivity)” value at c-Cbl is listed as “(0.94x)”.
For `Cn1cnnc1CC1(c2cccc(N3Cc4c(cc(CNC(C)(C)CF)cc4C(F)(F)F)C3=O)c2)CC(F)(F)C1` [Compound 372, 2-(3-(3,3-difluoro-1-((4-methyl-4H-1,2,4-triazol-3-yl)methyl)cyclobutyl)phenyl)-6-(((1-fluoro-2-methylpropan-2-yl)amino)methyl)-4-(trifluoromethyl)isoindolin-1-one] the same measures were 28 nM, 34 nM and “(1.2x)”.
On Cbl-b, `COC(C)(C)CNCc1cc2c(c(C(F)(F)F)c1)CN(c1cccc(C3(Cc4nncn4C)CC(F)(F)C3)c1)C2=O` [Compound 373, 2-(3-(3,3-difluoro-1-((4-methy-4H-1,2,4-triazol-3-yl)methyl)cyclobutyl)phenyl)-6-(((2-methoxy-2-methylpropyl)amino)methyl)-4-(trifluoromethyl)isoindolin-1-one] had an IC50 of 20 nM. On c-Cbl, the half-maximal inhibitory concentration (IC50) came to 25 nM and the “(fold-selectivity)” value is “(1.3x)”.
Turning to `CN1CCN(Cc2cc3c(c(C(F)(F)F)c2)CN(c2cccc(C4(Cc5nncn5C)CC(F)(F)C4)c2)C3=O)C(C(F)(F)F)C1` (centres unmarked) [Compound 374, 2-(3-(3,3-difluoro-1-((4-methyl-4H-1,2,4-triazol-3-yl)methyl)cyclobutyl)phenyl)-6-((4-methyl-2-(trifluoromethyl)piperazin-1-yl)methyl)-4-(trifluoromethyl)isoindolin-1-one], the results for the 50% inhibitory concentration (IC50) against Cbl-b and against c-Cbl were 100 nM and 99 nM, respectively. In addition, on c-Cbl, the “(fold-selectivity)” value is “(1.0x)”.
For `CCOc1cc(C2(Cc3nncn3C)COC2)cc(N2Cc3c(cc(CN4CCC(F)(F)[C@H](C)C4)cc3C(F)(F)F)C2=O)n1` [Compound 375, (R)-6-((4,4-difluoro-3-methylpiperidin-1-yl)methyl)-2-(6-ethoxy-4-(3-((4-methyl-4H-1,2,4-triazol-3-yl)methyl)oxetan-3-yl)pyridin-2-yl)-4-(trifluoromethyl)isoindolin-1-one] the same measures were 22 nM, 14 nM and “(0.65x)”.
The corresponding values for `CC(C)[C@H]1CN(C)CCN1Cc1cc2c(c(C(F)(F)F)c1)CN(c1cccc(C3([C@H](F)c4n[nH]cc4C(F)(F)F)COC3)c1)C2=O` [Compound 376, 2-(3-(3-((S)-fluoro(4-(trifluoromethyl)-1H-pyrazol-3-yl)methyl)oxetan-3-yl)phenyl)-6-(((S)-2-isopropyl-4-methylpiperazin-1-yl)methyl)-4-(trifluoromethyl)isoindolin-1-one] are 20000 nM, 20000 nM and “(1.0x)”.
The corresponding values for `CC(C)[C@H]1CN(C)CCN1Cc1cc2c(c(C(F)(F)F)c1)CN(c1cccc(C3([C@@H](F)c4n[nH]cc4C(F)(F)F)COC3)c1)C2=O` [Compound 377, 2-(3-(3-((R)-fluoro(4-(trifluoromethyl)-1H-pyrazol-3-yl)methyl)oxetan-3-yl)phenyl)-6-(((S)-2-isopropyl-4-methylpiperazin-1-yl)methyl)-4-(trifluoromethyl)isoindolin-1-one] are 10000 nM, 20000 nM and “(2.0x)”.
Regarding `Cl.Cn1cnnc1CC1(c2cc(NCc3ccncc3)nc(N3Cc4c(cc(CNC5(C)CCC5)cc4C(F)(F)F)C3=O)c2)CCC1` [Compound 380, 2-(4-(1-((4-methyl-4H-1,2,4-triazol-3-yl)methyl)cyclobutyl)-6-((pyridin-4-ylmethyl)amino)pyridin-2-yl)-6-(((1-methylcyclobutyl)amino)methyl)-4-(trifluoromethyl)isoindolin-1-one hydrochloride], on Cbl-b, the midpoint of inhibition, the IC50, lay at 89 nM. At c-Cbl, the IC50 is 99 nM and the “(fold-selectivity)” value was “(101x)”.
For `Cn1cnnc1CC1(c2cc(OC3CCCC3)nc(N3Cc4c(cccc4C(F)(F)F)C3=O)c2)COC1` [Compound 381, 2-(6-(cyclopentyloxy)-4-(3-((4-methyl-4H-1,2,4-triazol-3-yl)methyl)oxetan-3-yl)pyridin-2-yl)-4-(trifluoromethyl)isoindolin-1-one] the same measures were 1100 nM, 7300 nM and “(5.9x)”.
The corresponding values for `Cn1cnnc1CC1(c2cc(NC3C4CCC3C4)nc(N3Cc4c(cccc4C(F)(F)F)C3=O)c2)COC1` (centres unmarked) [Compound 382, 2-(6-(bicyclo[2.1.1]hexan-5-ylamino)-4-(3-((4-methyl-4H-1,2,4-triazol-3-yl)methyl)oxetan-3-yl)pyridin-2-yl)-4-(trifluoromethyl)isoindolin-1-one] are 820 nM, 20000 nM and “(24x)”.

Source of the values: patent publication US20250230147A1, “LACTAMS AS CBL-B INHIBITORS” (Genentech, Inc., priority 2021, published 2025).
